Laboratory results published in PMC6287599, “2,6-Bis(2-Benzimidazolyl)Pyridine (BBP) Is a Potent and Selective Inhibitor of Small Conductance Calcium-Activated Potassium (SK) Channels” (Frontiers in Pharmacology, 2018).
Like-named read-outs stand apart in the source and are kept apart here. Positions of bridges follow the written chain, without caps; N, C: chain ends. No end group written: not given here.

Columns and labels:
rSK3 H491N = molecular target: T1, rSK3 H491N (Rattus norvegicus, UniProt P70605, H486N); conditions: cited from earlier work
T1 construct: expressed in transfected cells; host or cells: HEK293 (transient, co-transfected with eGFP)

hBK = molecular target: T2, hBK (Homo sapiens, UniProt Q12791); assay: Manual whole cell patch clamp, HEK293 transiently transfected with hBK; assay type: cell-based; conditions: paxilline 3 μM, after BBP 1 μM
T2 construct: expressed in transfected cells; host or cells: HEK293 (transient, co-transfected with eGFP)
Method: HEK293 cells were transiently co-transfected with the plasmid of interest (hBK, hSK1, hSK2, hSK3 WT, rSK3 H491N, or hIK) and eGFP using standard Lipofectamine™ 2000 (Thermo Fisher Scientific, Waltham, Massachussets, USA) transfection protocols. After transfection, cells were incubated overnight before the experiments.
Manual patch clamp experiments were performed at room temperature in the whole cell configuration with a HEKA EPC9 amplifier and the Patchmaster software (HEKA Elektronik, Ludwigshafen, Germany). All currents were elicited every 2 s using an incremental 200 ms voltage-ramp protocol starting at −80 mV and finishing at +80 mV from a holding potential of 0 mV. […]
To assess the effect of BBP on other calcium-activated potassium channels (hBK, hSK3 WT, rSK3 H491N, and hIK), each individual current was first normalized to its cell size using membrane's capacitance (pA/pF) before statistical analysis. […] Statistical significance between saline and the effect of both BBP and the corresponding reference compound was determined for each channel using one-way ANOVA analysis. […]
After testing BBP on the three SK channel subtypes, we decided to explore whether other calcium-activated potassium channels were affected by the compound. […] Finally, a positive control was used to inhibit the remaining current and quantify the total effect of BBP. […]

T2 sequence (Q12791 whole entry): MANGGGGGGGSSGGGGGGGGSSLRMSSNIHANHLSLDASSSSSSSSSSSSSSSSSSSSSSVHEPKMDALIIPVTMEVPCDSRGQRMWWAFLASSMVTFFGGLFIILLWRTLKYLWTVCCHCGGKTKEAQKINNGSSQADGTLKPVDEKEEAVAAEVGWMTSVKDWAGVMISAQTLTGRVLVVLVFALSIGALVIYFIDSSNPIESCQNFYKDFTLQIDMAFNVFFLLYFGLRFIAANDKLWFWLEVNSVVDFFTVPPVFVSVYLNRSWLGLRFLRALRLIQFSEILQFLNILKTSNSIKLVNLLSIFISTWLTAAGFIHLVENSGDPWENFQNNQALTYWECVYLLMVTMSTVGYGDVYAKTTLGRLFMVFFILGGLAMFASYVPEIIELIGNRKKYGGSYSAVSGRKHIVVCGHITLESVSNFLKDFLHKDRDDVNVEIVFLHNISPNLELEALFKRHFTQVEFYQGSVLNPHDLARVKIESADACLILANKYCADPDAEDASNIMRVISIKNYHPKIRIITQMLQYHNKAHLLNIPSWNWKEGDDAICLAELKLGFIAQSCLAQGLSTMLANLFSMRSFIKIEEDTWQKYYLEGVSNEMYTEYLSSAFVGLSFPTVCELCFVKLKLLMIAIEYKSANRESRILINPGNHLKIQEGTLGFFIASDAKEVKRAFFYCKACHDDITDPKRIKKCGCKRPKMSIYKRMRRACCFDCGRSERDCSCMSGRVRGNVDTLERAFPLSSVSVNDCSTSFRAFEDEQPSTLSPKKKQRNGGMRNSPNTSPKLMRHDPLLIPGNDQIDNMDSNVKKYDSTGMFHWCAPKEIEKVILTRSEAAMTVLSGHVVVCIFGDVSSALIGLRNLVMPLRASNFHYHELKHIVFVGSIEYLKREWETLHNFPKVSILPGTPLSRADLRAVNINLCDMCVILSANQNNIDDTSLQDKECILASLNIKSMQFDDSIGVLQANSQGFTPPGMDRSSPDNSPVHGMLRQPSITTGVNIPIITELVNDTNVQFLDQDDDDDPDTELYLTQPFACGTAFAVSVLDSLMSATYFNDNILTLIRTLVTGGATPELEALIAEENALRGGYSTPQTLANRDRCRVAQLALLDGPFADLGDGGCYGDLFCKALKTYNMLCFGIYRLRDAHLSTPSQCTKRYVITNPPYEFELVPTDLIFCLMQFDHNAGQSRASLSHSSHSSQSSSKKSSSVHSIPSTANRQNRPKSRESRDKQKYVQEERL

Compound | Sensitivity of rSK3 H491N mutant to blocker (rSK3 H491N; ref Lamy et al., 2010) | also measured
COc1cc2c3cc1Oc1cc(ccc1O)C[C@@H]1c4c(cc(OC)c(O)c4Oc4ccc(cc4)C[C@@H]3N(C)CC2)CC[N+]1(C)C [D-tubocurarine] | insensitive | –
c1cc2cc(c1)C[n+]1ccc(c3ccccc31)NCc1ccc(cc1)CNc1cc[n+](c3ccccc13)C2 [UCL1684] | – | Sensitivity of rSK3 H491N mutant to blocker (rSK3 H491N): insensitive
CC(C)(O)[C@H]1O[C@H]2CC[C@@]3(C)[C@@](O)(CC[C@H]4Cc5c([nH]c6ccccc56)[C@@]43C)C2=CC1=O [paxilline, reference compound] | – | Effect on remaining hBK current (reference) (hBK): totally inhibited
apamin (CNCKAPETALCARRCQQH-NH2; disulfide 1-11, 3-15; ends not checked; UniProt P01500 28-45, looked up) | insensitive | –
